From patent publication US20250288587A1, “Methods of Treating Fibrosis” (Athira Pharma, Inc., priority 2022, published 2025)

Tests used:
CFA-stimulated rats [1] = assay: CFA inflammatory pain model, mechanical allodynia (von Frey test); format: in vivo; set-up: key to Mechanical Allodynia, change in sensitivity compared to CFA alone / Mechanical Allodynia, significant reduction in pain behavior vs CFA alone: NS = no statistically significant change in sensitivity compared to CFA alone; + = statistically significant change in sensitivity compared to CFA alone, p < 0.05
Procedure: (§1) Response to peripheral inflammatory stimulus can be modeled by administering complete Freund's adjuvant (CFA), a suspension of desiccated mycobacterium in paraffin oil and mannide monooleate, by subcutaneous injection into the rat's footpad. The introduction of CFA to peripheral tissues leads to a rapid, sustained, inflammatory reaction in the treated tissue within 24 hours. Subcutaneous administration of CFA in the plantar region of the paw induces inflammatory pain behaviors that persist for at least 8 days. CFA treatment also leads to the accumulation of inflammatory cytokines in paw tissue at the site of injury, which, if unresolved, can lead to formation of fibrotic tissue. The extent of inflammatory response to CFA can be assessed by quantification of inflammatory cytokines in paw skin lysate, and inflammatory pain behaviors by mechanical allodynia (von Frey test) and thermal hyperalgesia (Hargreaves test).
(§2) In one study, Compound 2a was tested for its ability to reduce inflammatory pain behaviors in the CFA inflammation model. On study day 0, […] of CFA was administered subcutaneously in the plantar of the right hind paw. Animals were treated daily with Compound 2a in solution via oral gavage (PO) at doses of 1, 0.1, and 0.025 mg/kg. Treatment began before CFA injection on study day −1 and continued through study day 8.
Mechanical allodynia was measured using the von Frey test. In this test, rats were placed on a wire mesh and a series of filaments designed to deliver probing force ranging from 4 to 26 grams were applied to the mid-plantar surface of the right hind paw. Animals indicated pain response by lifting the probed paw. The minimal force required to elicit the withdrawal response was recorded as the paw withdrawal threshold (PWT). Von Frey testing was performed 1 hour after Compound 2a dosing on study day 1, 3, and 7, and was also tested pre-dosing on day 7. Statistical analysis was performed using a 1-way ANOVA with Tukey post-test. A p-value below 0.05 was considered statistically significant. Control animals stimulated with CFA but treated with only vehicle had high sensitivity to mechanical stimulation compared to normal control animals.
(§3) In another study, Compounds 1a, 5a, and 6a were similarly tested against CFA-induced inflammatory stimulation in the right hind foot for their ability to reduce pain behaviors. This study also included quantification of inflammatory cytokine expression in paw skin lysate. Inflammatory pain stimulation with CFA injection and assessment of mechanical and thermal pain behaviors were performed as described above, with the exception that only post-dose pain behavior testing is reported.
(§4) Intraplantar CFA injection occurred at day 0. Treatment with Compounds 1a, 5a, and 6a occurred at days −2, 1, 3, and 7. At day 8, the rats were terminated and cytokine levels were measured in paw skin and plasma. Tissue from paw bone, joint, and muscle were obtained for H&E staining and analysis. Cytokine levels in test compound-treated animals were compared to CFA-stimulated animals. Analytes included interleukin 4 (IL-4), tumor necrosis factor alpha (TNF-α) and interferon gamma (IFN-γ). Statistical analysis consisted of 1-way ANOVA followed by Dunnett's multiple comparisons post-test. Mechanical allodynia and thermal hyperalgesia were tested 1 hour post-dosing on days 1, 3, and 7. PWT refers to […] paw withdrawal threshold where a higher value corresponds to a higher pain threshold. PWL refers to […] paw withdrawal latency where a higher value corresponds to a higher pain threshold.

CFA-stimulated rats [2] = assay: CFA inflammatory pain model, thermal hyperalgesia (Hargreaves method); format: in vivo; set-up: key to Thermal Hyperalgesia, change in sensitivity compared to CFA alone / Thermal Hyperalgesia, significant reduction in pain behavior vs CFA alone: NS = no statistically significant change in sensitivity compared to CFA alone; + = statistically significant change in sensitivity compared to CFA alone, p < 0.05
Procedure: as §1, §2
Thermal hyperalgesia was measured using the Hargreaves method. A temperature ramp was applied to the right hind paw and the paw withdrawal latency (PWL) was recorded as a measure of sensitivity to thermal stimulation. […] Statistical analysis was performed using a 1-way ANOVA with Tukey post-test. A p-value below 0.05 was considered statistically significant.
as §3, §4

CFA-stimulated rats [3] = assay: CFA inflammatory pain model, cytokine expression in paw skin; format: in vivo; set-up: key to IFN-γ expression in paw skin, change compared to CFA alone / IL-4 expression in paw skin, change compared to CFA alone / TNF-α expression in paw skin, change compared to CFA alone: NS = no statistically significant change in expression compared to CFA alone; + = statistically significant change in expression compared to CFA alone, p < 0.05; conditions: for IFN-γ expression in paw skin, change compared to CFA alone / IL-4 expression in paw skin, change compared to CFA alone / TNF-α expression in paw skin, change compared to CFA alone: day 8
Procedure: as §1, §3, §4

[4] = tested on: THP-1-differentiated macrophages; assay: Pro-inflammatory cytokine expression in LPS-challenged THP-1-differentiated macrophages; format: cell-based, human; set-up: key to IL-6, significant reduction in culture supernatant vs LPS treatment / TNF-α, significant reduction in culture supernatant vs LPS treatment / IL-1β, significant reduction in culture supernatant vs LPS treatment: “NS” indicates a non-significant reduction in the indicated cytokine; “+” indicates a p value <0.05 in Tukey post test; “++” indicates a p value <0.01 in Tukey post test; conditions: for IL-1β, significant reduction in culture supernatant vs LPS treatment / IL-6, significant reduction in culture supernatant vs LPS treatment / TNF-α, significant reduction in culture supernatant vs LPS treatment: 20 min pre-treatment, 24 hrs LPS
Procedure: Differentiation with PMA causes THP-1 monocyte cells to acquire functional and morphological resemblance to macrophages. LPS interacts with THP-1 differentiated macrophage through the toll-like receptor 4, triggering the inflammatory response and stimulating pro-inflammatory cytokine release and eventually leading to cellular death. Compounds were tested to determine their anti-inflammatory effects on LPS-challenged macrophage cultures. THP-1-differentiated macrophages were treated with test compounds for 20 minutes, followed by 24 hrs of LPS challenge. Culture supernatants were then collected to analyzed for the presence of pro-inflammatory cytokines: […], interleukin 6 (IL-6) and tumor necrosis factor α (TNF-α).
Cytokine quantification in cell culture supernatants was accomplished by HTRF kits to assess levels of IL-1β (Human IL-1β kit, #62HIL1BPEG, Cisbio) and IL-6 (Human IL-6 kit, 62HIL06PET, Cisbio), and by ELISA to determine the levels of TNF-α (Human TNF-α ELISA kit, KHC3011, ThermoFisher).
Data analysis was performed via 1-way ANOVA with Tukey post-test compared to LPS treatment cultures using Prism statistical software (GraphPad). Tabular data indicates significance of reduction in culture supernatants for the indicated analyte at the indicated doses.

CFA-stimulated rats [5] = assay: CFA inflammatory pain model, thermal hyperalgesia (Hargreaves method); format: in vivo; conditions: Day 5, 1 hour pre-dosing; data not shown
[6] = tested on: pulmonary LPS-stimulated rats; assay: Cytokine expression in BALF supernatant (multiplex immunoassay), LPS-induced acute pulmonary inflammation; format: in vivo; conditions: 3 mg/kg IP 1 h before LPS
[7] = tested on: pulmonary LPS-stimulated rats; assay: Immune cell infiltration in BALF, LPS-induced acute pulmonary inflammation; format: in vivo; conditions: 3 mg/kg IP 1 h before LPS; BALF 4 h post LPS
[8] = 2.5 mg/kg PO, Day 1, 1 h post-dose
[9] = 2.5 mg/kg PO, Day 3, 1 h post-dose
[10] = 2.5 mg/kg PO, Day 7, 1 h post-dose
[11] = 10 mg/kg PO, Day 1, 1 h post-dose
[12] = 10 mg/kg PO, Day 3, 1 h post-dose
[13] = 10 mg/kg PO, Day 7, 1 h post-dose

CCC(C)CN1CC2N(Cc3ccc(OC(F)F)cc3)CCC(=O)N2[C@@H](C)C1=O (some centres unmarked) [Compound 6a]
Mechanical Allodynia, significant reduction in pain behavior vs CFA alone (CFA-stimulated rats [1]; [8]): NS
Mechanical Allodynia, significant reduction in pain behavior vs CFA alone (CFA-stimulated rats [1]; [9]): NS
Mechanical Allodynia, significant reduction in pain behavior vs CFA alone (CFA-stimulated rats [1]; [10]): NS
Mechanical Allodynia, significant reduction in pain behavior vs CFA alone (CFA-stimulated rats [1]; [11]): NS
Mechanical Allodynia, significant reduction in pain behavior vs CFA alone (CFA-stimulated rats [1]; [12]): NS
Mechanical Allodynia, significant reduction in pain behavior vs CFA alone (CFA-stimulated rats [1]; [13]): NS
Thermal Hyperalgesia, significant reduction in pain behavior vs CFA alone (CFA-stimulated rats [2]; [8]): NS
Thermal Hyperalgesia, significant reduction in pain behavior vs CFA alone (CFA-stimulated rats [2]; [9]): NS
Thermal Hyperalgesia, significant reduction in pain behavior vs CFA alone (CFA-stimulated rats [2]; [10]): + (+ = statistically significant change in sensitivity compared to CFA alone, p < 0.05)
Thermal Hyperalgesia, significant reduction in pain behavior vs CFA alone (CFA-stimulated rats [2]; [11]): NS
Thermal Hyperalgesia, significant reduction in pain behavior vs CFA alone (CFA-stimulated rats [2]; [12]): NS
Thermal Hyperalgesia, significant reduction in pain behavior vs CFA alone (CFA-stimulated rats [2]; [13]): + (+ = statistically significant change in sensitivity compared to CFA alone, p < 0.05)
study days on which thermal sensitivity was reduced (CFA-stimulated rats [2]; PO, post-dose testing, any tested dose): study day 7
PWL (paw withdrawal latency) vs CFA+vehicle (CFA-stimulated rats [2]; day 7 at each dose, data not shown): statistically significant increase
IFN-γ expression in paw skin, change compared to CFA alone (CFA-stimulated rats [3]; 2.5 mg/kg PO): NS
IL-4 expression in paw skin, change compared to CFA alone (CFA-stimulated rats [3]; 2.5 mg/kg PO): + (+ = statistically significant change in expression compared to CFA alone, p < 0.05)
TNF-α expression in paw skin, change compared to CFA alone (CFA-stimulated rats [3]; 2.5 mg/kg PO): + (+ = statistically significant change in expression compared to CFA alone, p < 0.05)
IFN-γ expression in paw skin, change compared to CFA alone (CFA-stimulated rats [3]; 10 mg/kg PO): NS
IL-4 expression in paw skin, change compared to CFA alone (CFA-stimulated rats [3]; 10 mg/kg PO): NS
TNF-α expression in paw skin, change compared to CFA alone (CFA-stimulated rats [3]; 10 mg/kg PO): NS
IFN-γ expression in paw skin (CFA-stimulated rats [3]; both tested doses): no effect
IL-1β, significant reduction in culture supernatant vs LPS treatment ([4]; 0.1 nM): NS
IL-6, significant reduction in culture supernatant vs LPS treatment ([4]; 0.1 nM): NS
TNF-α, significant reduction in culture supernatant vs LPS treatment ([4]; 0.1 nM): NS
IL-1β, significant reduction in culture supernatant vs LPS treatment ([4]; 10 nM): NS
IL-6, significant reduction in culture supernatant vs LPS treatment ([4]; 10 nM): NS
TNF-α, significant reduction in culture supernatant vs LPS treatment ([4]; 10 nM): NS
IL-1β, significant reduction in culture supernatant vs LPS treatment ([4]; 1000 nM): + (“+” indicates a p value <0.05 in Tukey post test)
IL-6, significant reduction in culture supernatant vs LPS treatment ([4]; 1000 nM): NS
TNF-α, significant reduction in culture supernatant vs LPS treatment ([4]; 1000 nM): + (“+” indicates a p value <0.05 in Tukey post test)
expression of IL-1β and TNF-α ([4]; at at least one tested dose): significantly reduced
PWL (paw withdrawal latency) (CFA-stimulated rats [5]): statistically significant increase

C[C@@H]1C[C@H]2[C@@H]3CCC4=CC(=O)C=C[C@]4(C)[C@@]3(F)[C@@H](O)C[C@]2(C)[C@@]1(O)C(=O)CO [Dex, Dexamethasone, reference compound]
CCL2, significant change in cytokine expression in BALF supernatant [6]: + (+ = Significant change in cytokine quantification, p < 0.05 by Student's T-test)
CCL3, significant change in cytokine expression in BALF supernatant [6]: + (+ = Significant change in cytokine quantification, p < 0.05 by Student's T-test)
CCL5, significant change in cytokine expression in BALF supernatant [6]: + (+ = Significant change in cytokine quantification, p < 0.05 by Student's T-test)
CCL11, significant change in cytokine expression in BALF supernatant [6]: + (+ = Significant change in cytokine quantification, p < 0.05 by Student's T-test)
CX3CL1, significant change in cytokine expression in BALF supernatant [6]: + (+ = Significant change in cytokine quantification, p < 0.05 by Student's T-test)
CXCL1, significant change in cytokine expression in BALF supernatant [6]: + (+ = Significant change in cytokine quantification, p < 0.05 by Student's T-test)
CXCL5, significant change in cytokine expression in BALF supernatant [6]: + (+ = Significant change in cytokine quantification, p < 0.05 by Student's T-test)
CXCL10, significant change in cytokine expression in BALF supernatant [6]: + (+ = Significant change in cytokine quantification, p < 0.05 by Student's T-test)
EGF, significant change in cytokine expression in BALF supernatant [6]: + (+ = Significant change in cytokine quantification, p < 0.05 by Student's T-test)
IFN-γ, significant change in cytokine expression in BALF supernatant [6]: + (+ = Significant change in cytokine quantification, p < 0.05 by Student's T-test)
IL-1α, significant change in cytokine expression in BALF supernatant [6]: + (+ = Significant change in cytokine quantification, p < 0.05 by Student's T-test)
IL-1β, significant change in cytokine expression in BALF supernatant [6]: + (+ = Significant change in cytokine quantification, p < 0.05 by Student's T-test)
IL-5, significant change in cytokine expression in BALF supernatant [6]: + (+ = Significant change in cytokine quantification, p < 0.05 by Student's T-test)
IL-6, significant change in cytokine expression in BALF supernatant [6]: + (+ = Significant change in cytokine quantification, p < 0.05 by Student's T-test)
IL-10, significant change in cytokine expression in BALF supernatant [6]: + (+ = Significant change in cytokine quantification, p < 0.05 by Student's T-test)
IL-12p70, significant change in cytokine expression in BALF supernatant [6]: + (+ = Significant change in cytokine quantification, p < 0.05 by Student's T-test)
IL-13, significant change in cytokine expression in BALF supernatant [6]: + (+ = Significant change in cytokine quantification, p < 0.05 by Student's T-test)
IL-17A, significant change in cytokine expression in BALF supernatant [6]: + (+ = Significant change in cytokine quantification, p < 0.05 by Student's T-test)
TNF-α, significant change in cytokine expression in BALF supernatant [6]: + (+ = Significant change in cytokine quantification, p < 0.05 by Student's T-test)
Neutrophils in BALF, reduction in cell count vs disease control [7]: +++ (+++ = >75% reduction in cell count vs disease control)
Total Leukocytes in BALF, reduction in cell count vs disease control [7]: +++ (+++ = >75% reduction in cell count vs disease control)
